{"source": "ChEMBL document CHEMBL2176875", "about": "“Ago-allosteric modulators of human glucagon-like peptide 2 receptor” (Bioorg Med Chem Lett, 2012)", "key": {"[1]": {"target": "T1, Glucagon-like peptide 2 receptor (Homo sapiens) (UniProt O95838)", "T1 sequence (whole entry)": "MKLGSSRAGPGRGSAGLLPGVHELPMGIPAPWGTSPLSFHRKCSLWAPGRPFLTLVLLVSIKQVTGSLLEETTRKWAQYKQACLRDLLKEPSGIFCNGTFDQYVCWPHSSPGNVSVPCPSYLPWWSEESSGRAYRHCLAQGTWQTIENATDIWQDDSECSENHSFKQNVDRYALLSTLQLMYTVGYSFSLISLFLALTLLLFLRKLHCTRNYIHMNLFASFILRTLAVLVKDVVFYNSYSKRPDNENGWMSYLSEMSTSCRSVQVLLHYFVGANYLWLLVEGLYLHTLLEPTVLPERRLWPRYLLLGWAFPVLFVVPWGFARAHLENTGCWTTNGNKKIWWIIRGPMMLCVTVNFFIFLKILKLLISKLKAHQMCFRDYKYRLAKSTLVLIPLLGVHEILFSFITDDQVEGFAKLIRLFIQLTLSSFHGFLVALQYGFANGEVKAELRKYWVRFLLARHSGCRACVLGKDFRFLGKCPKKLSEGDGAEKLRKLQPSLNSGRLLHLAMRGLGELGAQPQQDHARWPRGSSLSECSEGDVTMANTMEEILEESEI", "assay": "Positive ago-allosteric modulation of GLP2R overexpressed in human SE302 cells assessed as increase in intracellular cAMP level at 1 to 10 uM after 30 mins in presence of GLP2 (3 to 33)", "assay_type": "functional, cell-based"}, "[2]": {"target": "T1, Glucagon-like peptide 2 receptor (Homo sapiens)", "assay": "Positive ago-allosteric modulation of GLP2R overexpressed in human SE302 cells assessed as decrease in GLP2 (3 to 33) EC50 at 1 uM measured on day 3 by Alamar Blue assay relative to control", "assay_type": "cell-based"}, "[3]": {"target": "T1, Glucagon-like peptide 2 receptor (Homo sapiens)", "assay": "Positive ago-allosteric modulation of GLP2R overexpressed in human SE302 cells assessed as increase in intracellular cAMP level at 10 uM after 30 mins in presence of GLP2", "assay_type": "functional, cell-based"}, "[4]": {"target": "T1, Glucagon-like peptide 2 receptor (Homo sapiens)", "assay": "Positive ago-allosteric modulation of GLP2R overexpressed in human SE302 cells assessed as leftward shift in GLP2-induced placental alkaline phosphatase activation measured on day 3 by Alamar Blue assay", "assay_type": "cell-based"}, "[5]": {"target": "T1, Glucagon-like peptide 2 receptor (Homo sapiens)", "assay": "Positive ago-allosteric modulation of GLP2R overexpressed in human SE302 cells assessed as increase in intracellular cAMP level at 10 to 100 uM after 30 mins", "assay_type": "functional, cell-based"}, "[6]": {"target": "T1, Glucagon-like peptide 2 receptor (Homo sapiens)", "assay": "Positive ago-allosteric modulation of GLP2R overexpressed in human SE302 cells assessed as upward shift in GLP2-induced placental alkaline phosphatase activation measured on day 3 by Alamar Blue assay", "assay_type": "cell-based"}, "[7]": {"target": "T1, Glucagon-like peptide 2 receptor (Homo sapiens)", "assay": "Positive ago-allosteric modulation of GLP2R overexpressed in human SE302 cells assessed as placental alkaline phosphatase activation measured on day 3 by Alamar Blue assay", "assay_type": "cell-based"}, "[8]": {"target": "T1, Glucagon-like peptide 2 receptor (Homo sapiens)", "assay": "Positive ago-allosteric modulation of GLP2R overexpressed in human SE302 cells assessed as decrease in GLP2 (11 to 33) EC50 at 1 uM measured on day 3 by Alamar Blue assay relative to control", "assay_type": "cell-based"}, "[9]": {"target": "T1, Glucagon-like peptide 2 receptor (Homo sapiens)", "assay": "Positive ago-allosteric modulation of GLP2R overexpressed in human SE302 cells assessed as increase in GLP2-induced placental alkaline phosphatase activation at 10 uM measured on day 3 by Alamar Blue assay relative to control", "assay_type": "cell-based"}, "[10]": {"target": "Glucagon-like peptide 1 receptor (Homo sapiens) (UniProt P43220)", "sequence (P43220 whole entry)": "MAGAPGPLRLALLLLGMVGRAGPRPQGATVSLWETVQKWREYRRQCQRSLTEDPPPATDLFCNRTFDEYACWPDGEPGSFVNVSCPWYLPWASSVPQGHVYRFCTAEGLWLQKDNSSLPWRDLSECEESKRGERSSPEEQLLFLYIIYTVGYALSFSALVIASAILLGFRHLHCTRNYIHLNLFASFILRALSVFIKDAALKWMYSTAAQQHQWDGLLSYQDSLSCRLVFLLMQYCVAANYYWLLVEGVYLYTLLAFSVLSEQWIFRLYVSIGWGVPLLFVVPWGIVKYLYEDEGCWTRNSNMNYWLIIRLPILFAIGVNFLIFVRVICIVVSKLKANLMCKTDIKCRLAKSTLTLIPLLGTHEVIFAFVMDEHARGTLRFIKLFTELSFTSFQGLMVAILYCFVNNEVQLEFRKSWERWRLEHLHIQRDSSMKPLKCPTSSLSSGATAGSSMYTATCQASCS", "assay": "Positive ago-allosteric modulation of GLP1R overexpressed in human SE302 cells assessed as increase in intracellular cAMP level at 10 to 100 uM after 30 mins", "assay_type": "functional, cell-based"}, "[11]": {"target": "T1, Glucagon-like peptide 2 receptor (Homo sapiens)", "assay": "Positive ago-allosteric modulation of GLP2R overexpressed in human SE302 cells assessed as decrease in GLP2 (11 to 33) EC50 at 10 uM measured on day 3 by Alamar Blue assay relative to control", "assay_type": "cell-based"}, "[12]": {"target": "T1, Glucagon-like peptide 2 receptor (Homo sapiens)", "assay": "Positive ago-allosteric modulation of GLP2R overexpressed in human SE302 cells assessed as increase in GLP2 (3 to 33)-induced placental alkaline phosphatase activation at 10 uM measured on day 3 by Alamar Blue assay relative to control", "assay_type": "cell-based"}, "[13]": {"target": "T1, Glucagon-like peptide 2 receptor (Homo sapiens)", "assay": "Positive ago-allosteric modulation of GLP2R overexpressed in human SE302 cells assessed as increase in GLP2 (3 to 33)-induced placental alkaline phosphatase activation at 1 uM measured on day 3 by Alamar Blue assay relative to control", "assay_type": "cell-based"}, "[14]": {"target": "T1, Glucagon-like peptide 2 receptor (Homo sapiens)", "assay": "Positive ago-allosteric modulation of GLP2R overexpressed in human SE302 cells assessed as decrease in GLP2 (3 to 33) EC50 at 10 uM measured on day 3 by Alamar Blue assay relative to control", "assay_type": "cell-based"}, "[15]": {"target": "T1, Glucagon-like peptide 2 receptor (Homo sapiens)", "assay": "Positive ago-allosteric modulation of GLP2R overexpressed in human SE302 cells assessed as increase in intracellular cAMP level at 1 to 10 uM after 30 mins in presence of GLP2 (11 to 33)", "assay_type": "functional, cell-based"}, "[16]": {"target": "T1, Glucagon-like peptide 2 receptor (Homo sapiens)", "assay": "Positive ago-allosteric modulation of GLP2R overexpressed in human SE302 cells assessed as placental alkaline phosphatase activation at 25 uM measured on day 3 by Alamar Blue assay relative to 100 pM GLP2", "assay_type": "cell-based"}, "[17]": {"target": "T1, Glucagon-like peptide 2 receptor (Homo sapiens)", "assay": "Positive ago-allosteric modulation of GLP2R overexpressed in human SE302 cells assessed as increase in GLP2 (11 to 33)-induced placental alkaline phosphatase activation at 10 uM measured on day 3 by Alamar Blue assay relative to GLP2", "assay_type": "cell-based"}, "[18]": {"target": "T1, Glucagon-like peptide 2 receptor (Homo sapiens)", "assay": "Positive ago-allosteric modulation of GLP2R overexpressed in human SE302 cells assessed as change in GLP2 EC50 measured on day 3 by Alamar Blue assay relative to control", "assay_type": "cell-based"}, "[19]": {"target": "T1, Glucagon-like peptide 2 receptor (Homo sapiens)", "assay": "Positive ago-allosteric modulation of GLP2R overexpressed in human SE302 cells assessed as increase in GLP2 (11 to 33)-induced placental alkaline phosphatase activation at 1 uM measured on day 3 by Alamar Blue assay relative to control", "assay_type": "cell-based"}, "[20]": {"target": "T1, Glucagon-like peptide 2 receptor (Homo sapiens)", "assay": "Positive ago-allosteric modulation of GLP2R overexpressed in human SE302 cells assessed as increase in GLP2 (11 to 33)-induced placental alkaline phosphatase activation at 10 uM measured on day 3 by Alamar Blue assay relative to control", "assay_type": "cell-based"}, "[21]": {"target": "T1, Glucagon-like peptide 2 receptor (Homo sapiens)", "assay": "Positive ago-allosteric modulation of GLP2R overexpressed in human SE302 cells assessed as placental alkaline phosphatase activation at 25 uM measured on day 3 by Alamar Blue assay relative to 10 pM GLP2", "assay_type": "cell-based"}, "[22]": {"target": "T1, Glucagon-like peptide 2 receptor (Homo sapiens)", "assay": "Positive ago-allosteric modulation of GLP2R overexpressed in human SE302 cells assessed as GLP2 (3 to 33)-induced placental alkaline phosphatase activation at 10 uM measured on day 3 by Alamar Blue assay relative to GLP2", "assay_type": "cell-based"}}, "note": "Active and inactive are the calls of the source. No cut-off for these calls is given here.", "data": [{"smiles": "O/N=C(\\CSc1ccccc1)c1cc(Cl)sc1Cl", "values": [{"measurement": "Activity", "setting": "[1]", "value": "Active"}, {"measurement": "fold change (FC)", "setting": "[2]", "value": 1.2}, {"measurement": "Activity", "setting": "[3]", "value": "Active"}, {"measurement": "Activity", "setting": "[4]", "value": "Dose-dependent effect"}, {"measurement": "Activity", "setting": "[5]", "value": "Active"}, {"measurement": "Activity", "setting": "[6]", "value": "Dose-dependent effect"}, {"measurement": "Activity", "setting": "[7]", "value": "inactive"}, {"measurement": "fold change (FC)", "setting": "[8]", "value": 3.4}, {"measurement": "Activity", "setting": "[9]", "value": 10, "unit": "%"}, {"measurement": "Activity", "setting": "[10]", "value": "inactive"}, {"measurement": "fold change (FC)", "setting": "[11]", "value": 17}, {"measurement": "%max", "setting": "[12]", "value": 150, "unit": "%"}, {"measurement": "%max", "setting": "[13]", "value": 110, "unit": "%"}, {"measurement": "fold change (FC)", "setting": "[14]", "value": 3.3}, {"measurement": "Activity", "setting": "[15]", "value": "Active"}, {"measurement": "%max", "setting": "[16]", "value": 55, "unit": "%"}, {"measurement": "Activity", "setting": "[17]", "value": "Active"}, {"measurement": "Activity", "setting": "[18]", "value": "inactive"}, {"measurement": "%max", "setting": "[19]", "value": 490, "unit": "%"}, {"measurement": "%max", "setting": "[20]", "value": 930, "unit": "%"}, {"measurement": "%max", "setting": "[21]", "value": 701, "unit": "%"}, {"measurement": "Activity", "setting": "[22]", "value": "Active"}]}]}
